The values below come from a melting point compilation (Tetko et al.; mined from patent text by program, amines drawn as free bases though some values may be those of a salt).

Molecules are shown by their SMILES.

In general, melting point refers to the temperature of the solid-liquid transition. Compound `CCC(Oc1ccc(CCC(=O)c2ccc(-c3ccc(C(F)(F)F)cc3)s2)cc1Br)C(=O)O` (stereo unspecified) yielded a melting point of 126 to 128 °C.

With `NC1CCC(CCN2CCN(c3ccccc3)CC2)CC1` (stereo unspecified), the melting point was in the range of 65 to 70 °C.

Compound `CCOC(=O)c1cc(C(=O)c2ccc(C)cc2)n(C)c1C` gave a melting point of 98 to 100 °C.

For `CCOC(=O)NN(C)c1cc(C)c(-c2cccc([N+](=O)[O-])c2)nn1`, the melting point lay within 142 to 144 °C.

`c1ccc(Cn2ncc3c(NCC4CCCCC4)c4ccccc4nc32)cc1` registered a melting point of 254 to 256 °C.

For `CC(C)(C)c1cc(CCC(=O)OC2CCCCCCCCCCC2OC(=O)CCc2cc(C(C)(C)C)c(O)c(C(C)(C)C)c2)cc(C(C)(C)C)c1O` (stereo unspecified), the melting point fell in the range of 61 to 74 °C.

`CC(=O)c1cccn1Cc1ccco1`: the melting point is 42 to 43 °C.

`CC(C(=O)O)c1ccc(N(C)c2nccs2)cc1` (stereo unspecified) had a melting point of 121 to 123 °C.

On to `O=C(Cc1ccccc1)c1ccc(SC(F)F)cc1`, for which the melting point lay in the range of 42 to 45 °C.

Turning to `N=c1[nH]c2ccccc2c2nc(-c3ccco3)nn12`, the melting point fell in the range of 282 to 285 °C.

In turn, `CC(C)(C)C(O)C(NC(=O)c1ccccc1)n1ccnc1` (stereo unspecified) had a melting point of 143 °C.

In turn, `COc1ccc(-c2ccncc2OC2SCC(O)C(O)C2O)cc1` (stereo unspecified) came in with a melting point of 228 °C.

For the compound `CN(C)[C@H]1CC[C@@H](C(=O)N2CCC(c3[nH]nc4c3C(=O)c3c(NC(=O)NN5CCOCC5)cccc3-4)CC2)CC1`, the melting point fell in the range of 123 to 125 °C.

In turn, `CC(C)(C)C(=O)Oc1ccc2nc(S(N)(=O)=O)sc2c1` registered a melting point of 167 °C.

Consider `COc1cc2cc3c(Nc4ccc(Sc5nccn5C)c(Cl)c4)c(C#N)cnc3cc2cc1OCCn1nccn1`, for which the melting point is 235 to 237 °C.

`O=C(O)c1ccccc1Sc1cccc(OCc2ccc3cc(Cl)ccc3n2)c1` registered a melting point of 177 to 179 °C.

In turn, `CN(CC(=O)OC(C)(C)C)C[C@@H]1CC(c2ccc(-c3ccc(N4C[C@H](Cn5ccnn5)OC4=O)cc3F)cn2)=NO1` showed a melting point of 180 °C.

On to `CC(C)c1cc(CO)n(Cc2ccc(Cl)cc2Cl)n1`, for which the melting point was 89 to 90 °C.

In turn, `CN1CCCCC(C2=CC(=O)CCC2)C1=O` (stereo unspecified) registered a melting point of 109 to 110 °C.

For the compound `CCc1noc(-c2cn(-c3cc(Cl)ccc3OCc3ccccc3)cn2)n1`, the melting point lay within 100 to 102 °C.

Turning to `Cc1nc2c(c(=O)[nH]1)-c1ccc(Cl)cc1C(c1ccccc1F)=NC2`, the melting point fell in the range of 262 to 264 °C.

Take `CSc1nnc(-c2ccc3ncn(-c4ccc(OC(F)(F)F)cc4)c3c2)o1`: the melting point lay within 200 to 201 °C.

Consider `CC(C)(C)c1nn(-c2c(Cl)cc(C(F)(F)F)cc2Cl)c(Br)c1[N+](=O)[O-]`, for which the melting point was 105 to 108 °C.

On to `O=c1cc(-c2ccccc2)sn1-c1nc2ccccc2s1`, for which the melting point lay within 201 to 202 °C.

Regarding `Cc1nc(-c2ccc(N3CCOCC3)c([N+](=O)[O-])c2)sc1C(=O)O`, the melting point is 218 to 220 °C.

`COCn1ccnc1C(O)(c1ccc(C(F)(F)F)cc1)c1ccc(C(F)(F)F)cc1` showed a melting point of 160 to 161 °C.

On to `O=C(O)Cc1ccc(N2CC3=C(CC=CC3)C2=O)cc1`, for which the melting point lay in the range of 198 to 200 °C.

For `O=C(CSc1ncc(Br)cn1)c1ccccc1`, the melting point lay in the range of 107 to 109 °C.

The compound `NS(=O)(=O)c1ccc(CCNC(=O)CCn2cnc3c(=O)[nH]cnc32)cc1` yielded a melting point of 212 to 216 °C.

For the compound `N=C(Nc1ccc(CCNCc2ccccc2Cl)cc1)c1cccs1`, the melting point lay in the range of 81 to 82 °C.

On to `CCOC(=O)COC1CCN(C(=O)[C@H](C)NC(=O)c2ccc(C(N)=NO)cc2)CC1`, for which the melting point was in the range of 212 to 213 °C.

As for `CCCNc1nc(-c2ccc(OC)c(OC)c2)nc2sc(C#N)c(C)c12`, the melting point was in the range of 179 to 181 °C.

Turning to `CN1CCN(c2nccc(Oc3ccc(NC(=O)c4cc(F)cc(N5CCOCC5)c4)c4ccccc34)n2)CC1`, the melting point is 195 to 197 °C.

`CCNC(=O)n1nc(Oc2ncc(C(F)(F)F)cc2Cl)cc1CC` yielded a melting point of 85 to 86 °C.

For the compound `CCOc1ccc(-c2c(O)c3ccc(Cl)cc3[nH]c2=O)cc1`, the melting point is over 320 °C.

Regarding `CC(C)(C)CC(C)(C)NCC(O)COc1ccccc1C(=O)Nc1cccc2[nH]ccc12` (stereo unspecified), the melting point is 140 °C.

`Cc1ccc2c(Cl)cc(I)c(O)c2n1` displayed a melting point of 85 to 93 °C.

`COc1cc(-c2nc3ccc(OCCCCl)cc3n2Cc2ccccc2)cc(OC)c1OC`: the melting point turned out to be 118 °C.

Regarding `N#Cc1ncccc1Oc1cccc(F)c1`, the melting point lay within 92 to 93 °C.

For the compound `O=[N+]([O-])c1cc(Cl)cc(CO)c1`, the melting point lay within 74 to 75 °C.

As to `C[C@@H](O)[C@H]1C(=O)N([Si](C)(C)C(C)(C)C)[C@@H]1[C@@H]1COC(C)(C)O1`, the melting point was in the range of 80 to 90 °C.

Turning to `CC(C)(C)c1cc(CCC(=O)NCCOC(=O)CCc2cc(C(C)(C)C)c(O)c(C(C)(C)C)c2)cc(C(C)(C)C)c1O`, the melting point was in the range of 151 to 154 °C.

Regarding `COc1cc2c(cc1OC)C(c1sc(O)nc1C)=NCC2`, the melting point lay in the range of 114 to 120 °C.

As to `CCCCc1cc(-c2ccc(S(N)(=O)=O)cc2)n(-c2ccc(OC)cc2)c1`, the melting point was 115 to 117 °C.

Compound `Cc1cc(S(=O)(=O)c2ccc(N)cc2)cc(N(C)C)n1` showed a melting point of 157 to 159 °C.

As to `CC(C)(C)OC(=O)COCCC1CCN(c2cnc(-c3ccccc3)c(-c3ccccc3)n2)CC1`, the melting point was 104 to 106 °C.

`CC(C)C(c1ccc(CC(N)=O)cc1)n1ccnc1` (stereo unspecified) had a melting point of 244 °C.

In the case of `O=[N+]([O-])c1ccc(N2CCC(Nc3ncnc4c3ncn4[C@@H]3C[C@H](CO)[C@@H](O)[C@H]3O)C2)cc1` (stereo partly specified), the melting point lay within 119 to 120 °C.

With `CCOC(=O)CCCCn1c(=O)[nH]c2ccc(F)cc2c1=O`, the melting point was 131 to 132 °C.

Compound `CC[C@@H](c1ccccc1)N(Cc1ccc(C(=O)O)cc1OC)S(=O)(=O)c1ccc(Cl)cc1` displayed a melting point of 176 to 178 °C.

As for `CCc1oc2ccccc2c1C(=O)c1ccc(OC(C)C(=O)O)cc1` (stereo unspecified), the melting point lay within 182 to 184 °C.

`C#Cc1cccc(-c2nccc3nc(N)nn23)c1` gave a melting point of 170 to 172 °C.

`Cc1ccc(-n2nc(C(F)(F)F)cc2-c2ccc(S(C)(=O)=O)c(F)c2)cc1Cl` displayed a melting point of 144 to 145 °C.

As to `Cc1nc(NCCc2ccccc2)sc1-c1ccnc(Nc2ccc(N3CCN(Cc4ccccc4)CC3)cc2)n1`, the melting point is 191 to 192 °C.

Compound `O[C@H]1c2cc3ccccc3cc2[C@H](O)c2cc3ccccc3cc21` came in with a melting point of 235 °C.

For `N#Cc1ccc(ON=C2CCCC(C(=O)O)C2)cc1` (stereo unspecified), the melting point is 153 to 154 °C.

Compound `CC(C)(C)OC(=O)NCCNC(=O)c1cc([N+](=O)[O-])ccn1` came in with a melting point of 130 to 131 °C.

In turn, `Cc1c2c(c(Cc3ccc(C(C)C)cc3)c(C)c1NCc1ccccc1)OCC2` yielded a melting point of 115 to 116 °C.

The compound `O=C1OC2(CCN(C(=O)Nc3cnc(-c4cccc(O)c4)cn3)CC2)c2ccccc21` yielded a melting point of 257 to 259 °C.

Turning to `Cc1cccc(N2CCN(CCc3c(C)nc4ccccn4c3=O)CC2)c1`, the melting point fell in the range of 95.5 to 96.5 °C.

`CCc1c2nc(-c3cc(S(C)(=O)=O)ccc3OCC(C)C)[nH]c(=O)c2nn1Cc1nccn1C` came in with a melting point of 253 to 254 °C.

`CN1C(=O)c2ccccc2C(C(=O)O)C1c1ccc(OCc2ccccc2)c(OCc2ccccc2)c1` (stereo unspecified) registered a melting point of 170 to 172 °C.

On to `CCC(=C(c1ccc(O)cc1)c1ccc(OCCN(C)C)cc1)c1ccccc1`, for which the melting point was 114 to 117 °C.

Compound `CCN(CC)P(N)(=O)N(c1ccc(S(=O)(=O)c2ccccc2)cc1)c1ccc(S(=O)(=O)c2ccccc2)cc1` (stereo unspecified) came in with a melting point of 115 to 130 °C.

Compound `COc1cccc(Sc2c(O)c3ccc(Cl)cc3[nH]c2=O)c1` showed a melting point of 199 to 200 °C.

In turn, `Cc1cc(-c2ccc(S(N)(=O)=O)cc2)n(-c2ccc(S(C)=O)cc2)c1` (stereo unspecified) had a melting point of 249 to 251 °C.

`C[C@]1(c2ccccc2)C[C@@]1(NS(=O)(=O)c1ccc(-c2cc(C(F)(F)F)on2)s1)C(=O)O` showed a melting point of 130 to 132 °C.

`CC(=O)SCC(CC(C)C)C(=O)O` (stereo unspecified) showed a melting point of 42 to 47 °C.

In turn, `Cc1ccc(C(=O)c2ccc(C(C)C(=O)O)cc2)s1` (stereo unspecified) came in with a melting point of 93.7 °C.

Compound `COCC1CCCN1S(=O)(=O)c1ccc2c(c1)C1(OCCCO1)C1=NCC(C)(C)CN12` (stereo unspecified) returned a melting point of 169 to 171 °C.

The compound `C=CCN(CC=C)CC1Oc2c(cc(C)c3[nH]c(=O)ccc23)C1CF` (stereo unspecified) had a melting point of 68 to 71 °C.

In the case of `CCOC(=O)c1cnc2nn(C)cc2c1N1CCN(C)CC1`, the melting point lay in the range of 142 to 143 °C.

Consider `COc1ccc(C(=O)Nc2ccccc2)cc1NCc1ccc(C)c(C)c1`, for which the melting point is 163 to 164 °C.

`NC(=O)C1CCN(C(c2ccccc2)c2ccccc2)CC1`: the melting point was found to be 150 °C.

With `CC(=O)Nc1c(C(=O)c2ccccc2)[nH]c2cc(C(F)(F)F)ccc12`, the melting point lay within 177 to 179 °C.

In turn, `O=C1COc2ccc(NC(=O)C(=O)N3CCC(Cc4ccccc4)CC3)cc2N1` registered a melting point of 186 to 187 °C.

In turn, `S=c1[nH]c2cccnc2n1-c1ccc2c(c1)OCO2` gave a melting point of 278 °C.

In turn, `O=C1NC(CO)(CO)CO1` displayed a melting point of 107 to 108 °C.

With `COC(=O)c1cc(S(C)(=O)=O)ccc1OC`, the melting point lay within 113 to 115 °C.

For `O=CN(O)C(CCc1ccc(C(=O)O)cc1)CS(=O)(=O)c1ccc(Oc2ccc(OC(F)(F)F)cc2)cc1` (stereo unspecified), the melting point was 189 to 191 °C.

`CCOC(=O)C(C)(Cc1cccnc1)S(=O)(=O)c1ccc(OC)cc1` (stereo unspecified) registered a melting point of 58 °C.

For the compound `Cc1c(CO)nc(-c2ccc(C(F)(F)F)cc2)n1C`, the melting point amounted to 152 °C.

As to `CC1=C([N+](=O)[O-])C(c2cccc(Cl)c2Cl)c2c[nH]nc2N1` (stereo unspecified), the melting point was over 270 °C.

Compound `CCOC(=O)[C@H](CC(C)C)NC(=O)[C@@H]1CCCN1C(=O)OCc1ccccc1` displayed a melting point of 60 to 64 °C.

For the compound `O=C(Nc1ccc(Cl)c(Cl)c1)c1cc(Br)ccc1O`, the melting point is 249 to 251 °C.

`COc1cc(C)nc(NC(=O)NS(=O)(=O)c2ccccc2CCSC#N)n1` returned a melting point of 161 to 165 °C.
